# Assay results reported in patent US20080293759A1, “Method for Treating Cancer Based on the Modulation of Calcineurin” (Centre National De La Recherche, priority 2005, published 2008).
# Tests used:
# NFAT2 = assay: ICN1 leukemic cells in culture with CsA or ionomycin, NFAT2 western blot; type: cell-based, mouse; conditions: ICN1 leukemic cells maintained in culture for 60 minutes
# Protocol: Phosphorylated and de-phosphorylated isoforms are indicated by coloured arrows.
# Leukemia-derived primary cells and leukemia cell lines (TEL-JAK2, ICN1 and ERP15-14) were maintained in RPMI 1640 supplemented with 10% foetal calf serum, 100 U/ml penicillin, 100 μg/ml streptomycin, 2 mM glutamine (all from Life Technologies) and […] 2-βmercaptoethanol (Sigma).
# Total cellular extracts prepared from cells obtained directly from diseased animals or control littermates or harvested at the indicated times following culture, were resolved by SDS-PAGE and subjected to immunoblot analysis with the indicated antibody (Ab). The NFAT1(sc-7296), NFAT2 (sc-7294), NFAT4 (sc-8321), STAT5 (C-17; sc-835) antibodies were purchased from Santa Cruz Biotechnology. The phosphotyrosine-STAT5 antibody (05-495) was purchased from Upstate Biotechnology. The pan-NFAT Ab (796) was kindly provided by Dr. Nancy Rice.
# NFATc1, NFATc2, NFATc3 = assay: Thymocytes ex vivo with CsA or ionomycin, NFAT western blot; type: cell-based, mouse; conditions: unstimulated thymocytes ex vivo, 1 μg/ml, 60 minutes
smiles,measurement,setting,value
C[C@H](CCC(=O)O)C[C@H](C)C[C@H](C)C(=O)/C=C(\O)[C@H](C)C[C@H](C)C/C=C/[C@@H](C)[C@@H](O)[C@@H](C)[C@@H](O)C[C@@H]1CC[C@@](C)([C@H]2CC[C@@](C)([C@@H](C)O)O2)O1 [ionomycin],NFAT2 isoform migration (phosphorylation),NFAT2,indistinguishable from that observed in ICN1 non-treated leukemic cells
same,"NFATc1, NFATc2, NFATc3 phosphorylation","NFATc1, NFATc2, NFATc3",fully dephosphorylated
